The source of these data is patent US20060014801A1, “Prevention and treatment of cognitive impairment using (R)-(-)-5-methyl-1-nicotynoyl-2-pyrazoline (MNP) and analogs” (The Johns Hopkins University, priority 2002, published 2006).

The test system of one assay is rat. Description: Other behavioral measures in the rat. The note with it: 10 mg/kg/day. Format: in vivo.
Another assay relates to aged impaired (AI) rats. Format: in vivo. As to conditions: 50 mg/kg/day s.c. minipump. On the procedure:
Spatial memory version of the Morris water maze: Behavioral testing is conducted by an experimenter who is blind to drug treatment. Fourteen 25-27 month-old Long-Evans rats, previously characterized as cognitively impaired (AI rats), were tested in a modified version of the Morris water maze (MWM) task using the same MWM apparatus as described above. Unlike the traditional protocol wherein the platform location remained constant throughout training, the escape platform location in this spatial memory version of the task varied from day-to-day (in one of nine different positions).
AI rats were given six training trials per day with a 60-sec intertrial interval. On each training trial, the rat was released in the maze from one of four equally spaced starting positions around the perimeter of the pool. […] Following the six training trials, the rat is returned to its home cage and placed in the animal housing room. After a delay of four hours, the rat is given one additional testing trial (the “retention trial”) with the escape platform located in the same position as in the 6 training trials. The length of the rat's swim path to reach the escape platform is measured in all six training trials and the retention trial. Spatial memory in this task is measured by comparing the swim path lengths in the retention trial with the sixth (and final) training trial. […] A greater difference in performance in these two trials represents a greater degree of forgetting. After two days of acclimation to these procedures, this test protocol is given for nine consecutive days, with the position of the escape platform moved daily.
MNP enhances the cognitive performance of aged rats in the spatial memory version of the MWM: Following characterization for cognitive status with a traditional MWM protocol, impaired aged rats were assigned to one of two treatment conditions (vehicle controls or MNP). […] AI rats were pretreated with either vehicle or MNP for 9 days prior to behavioral testing. Osmotic minipumps (Alzet) were filled with either vehicle (0.9% saline) or MNP (50 mg/kg/day) and implanted subcutaneously. Initially, Alzet pumps that administer compound for one week were implanted; after seven days, these pumps (now empty) were removed and replaced with full two-week pumps allowing delivery of either MNP or saline for a total of 21 days. On Day 9 of treatment with either vehicle or MNP, MWM testing was begun. Data were collected in two replications with vehicle- and drug-treated rats represented in each. A total of 9 vehicle-treated and 5 MNP-treated rats completed the entire protocol. Several rats in both treatment groups, however, died during the execution of the study. […]

Molecules are shown by their SMILES.

Regarding `C[C@@H]1CC=NN1C(=O)c1cccnc1` [MNP, (R)-(−)-5-methyl-1-nicotinoyl-2-pyrazoline], the “Efficacy in other behavioral measures in the rat” value in the assay with rat is “efficacious”. The “Difference in performance between final training trial and retention trial” value with aged impaired (AI) rats (4-hour delay) was “no significant difference in performance”. The “Performance in retention trials vs vehicle-treated controls” value in the assay on aged impaired (AI) rats (4-hour delay, Days 9-11 of treatment) is given as “performed significantly better”. For the same compound, in the assay on aged impaired (AI) rats (Mann Whitney U test p<0.05), the “Savings scores (memory for the platform location) vs vehicle-treated controls” value was “significantly better than vehicle-treated controls”. For the same compound, in the assay on aged impaired (AI) rats (two-way analysis of variance), the “Performance on training trials 1-6 vs vehicle group” value is “no significant difference between the groups”.
